# Test results: ChEMBL document CHEMBL1145929, “Syntheses and binding studies of new [(aryl)(aryloxy)methyl]piperidine derivatives and related compounds as potential antidepressant drugs with high affinity for serotonin (5-HT) and norepinephrine (NE) transporters” (J Med Chem, 2003)
# Target: T1, 5-hydroxytryptamine receptor 1A (Rattus norvegicus, UniProt P19327)
# T1 sequence (P19327 whole entry): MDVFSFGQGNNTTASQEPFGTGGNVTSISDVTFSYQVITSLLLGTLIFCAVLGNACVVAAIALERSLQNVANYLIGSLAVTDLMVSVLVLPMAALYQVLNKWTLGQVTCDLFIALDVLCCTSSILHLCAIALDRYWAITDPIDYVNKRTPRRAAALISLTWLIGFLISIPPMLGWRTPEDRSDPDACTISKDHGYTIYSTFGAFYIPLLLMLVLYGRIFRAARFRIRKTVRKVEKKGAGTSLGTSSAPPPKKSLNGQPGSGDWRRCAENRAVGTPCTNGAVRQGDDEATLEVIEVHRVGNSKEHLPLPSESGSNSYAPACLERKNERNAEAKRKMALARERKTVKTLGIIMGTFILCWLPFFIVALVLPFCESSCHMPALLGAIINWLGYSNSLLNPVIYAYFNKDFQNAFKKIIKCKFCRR
# Assay: Binding affinity against 5-hydroxytryptamine 1A receptor (5-HT1A) by displacement of [3H]8-OH-DPAT from rat hippocampus membranes
# Format: cell membranes, Membrane
row,SMILES,IC50
1,FC(F)(F)c1cccc(OC(c2ccccc2)C2CCNCC2)c1 (stereo not drawn),> 1 µM
2,Clc1ccc(OC(CCN2CCc3ccccc3C2)c2ccccc2)cc1 (stereo not drawn),> 1 µM
3,N#Cc1ccccc1OC(c1ccccc1)C1CCNCC1 (stereo not drawn),> 1 µM
4,Fc1cccc(C(Oc2ccccc2F)C2CCNCC2)c1 (stereo in doubt; 15t),> 1 µM
5,Fc1ccc(C(Oc2ccccc2)C2CCCNC2)cc1 (stereo not drawn),> 1 µM
6,Fc1ccc(C(Oc2cccc3ccccc23)C2CCCNC2)cc1 (stereo not drawn),> 1 µM
7,Oc1c(F)cccc1OC(c1ccccc1)C1CCNCC1 (stereo not drawn),> 1 µM
8,Clc1ccc(OC(c2ccccc2)C2CCNCC2)cc1Cl (stereo not drawn),> 1 µM
9,Fc1cccc(OC(c2cccc(F)c2)C2CCNCC2)c1 (stereo in doubt; (-)-15u),> 1 µM
10,N#Cc1ccc(OC(c2ccccc2)C2CCNCC2)cc1Cl (stereo not drawn),> 1 µM
11,Clc1ccccc1OC(c1ccccc1)C1CCNCC1 (stereo not drawn),> 1 µM
12,FC(F)(F)c1ccccc1OC(CCN1CCc2ccccc2C1)c1ccccc1 (stereo not drawn),> 1 µM
13,FC(F)(F)c1ccccc1OC(c1ccccc1)C1CCNCC1 (stereo not drawn),> 1 µM
14,Cc1ccc(OC(c2ccc(F)cc2)C2CCCNC2)cc1 (stereo not drawn),> 1 µM
15,c1ccc(OC(c2ccccc2)C2CCNCC2)cc1 (stereo not drawn),> 1 µM
16,COc1ccc(OC(c2ccc(F)cc2)C2CCNCC2)cc1 (stereo not drawn),> 1 µM
17,Fc1ccc(OC(c2ccc(F)cc2)C2CCCNC2)cc1 (stereo not drawn),> 1 µM
18,Ic1cccc(OC(c2ccccc2)C2CCNCC2)c1 (stereo not drawn),> 1 µM

row,SMILES,IC50
1,Brc1cccc(OC(c2ccccc2)C2CCNCC2)c1 (stereo not drawn),> 1 µM
2,Oc1cc(F)cc(OC(c2ccccc2)C2CCNCC2)c1 (stereo not drawn),> 1 µM
3,FC(F)(F)c1ccc(OC(c2ccccc2)C2CCNCC2)cc1 (stereo not drawn),> 1 µM
4,Fc1ccc(C(Oc2ccc(Cl)cc2)C2CCCNC2)cc1 (stereo not drawn),> 1 µM
5,O=[N+]([O-])c1ccc(OC(c2ccccc2)C2CCNCC2)cc1 (stereo in doubt; 15m),> 1 µM
6,Fc1cccc(OC(c2ccccc2)C2CCOCC2)c1 (stereo not drawn),> 1 µM
7,Oc1cc2c(cc1O)CN(CCC(Oc1ccccc1F)c1ccccc1)CC2 (stereo not drawn),> 1 µM
8,Fc1ccc(C(Oc2ccc(C(F)(F)F)cc2)C2CCCNC2)cc1 (stereo not drawn),> 1 µM
9,COc1ccc(OC(c2ccc(F)cc2)C2CCCNC2)cc1 (stereo not drawn),> 1 µM
10,c1ccc(C(Oc2cccc3ccccc23)C2CCNCC2)cc1 (stereo in doubt; 15au),> 1 µM
11,Clc1ccc(C(Oc2ccccc2)C2CCNCC2)cc1 (stereo not drawn),> 1 µM
12,"Fc1ccc(OC(c2ccccc2)C2CCNCC2)cc1 (single isomer, unassigned; (-))",> 1 µM
13,Fc1ccccc1OC(c1ccccc1)C1CCNCC1 (stereo in doubt; 15b),> 1 µM
14,Cc1ccc(Cl)cc1OC(c1ccccc1)C1CCNCC1 (stereo not drawn),> 1 µM
15,Fc1cccc(OC(c2cccc(F)c2)C2CCNCC2)c1 (stereo in doubt; 15u),> 1 µM
16,Oc1cc2c(cc1O)CN(CCC(Oc1ccc(Cl)cc1)c1ccccc1)CC2 (stereo not drawn),> 1 µM
17,COc1cc2c(cc1OC)CN(CCC(Oc1ccc(Cl)cc1)c1ccccc1)CC2 (stereo not drawn),> 1 µM

# Target: 5-hydroxytryptamine receptor 2A (Rattus norvegicus, UniProt P14842)
# Assay: Binding affinity against 5-hydroxytryptamine 2A receptor by displacement of [3H]-ketanserin from rat prefrontal cerebral cortex mambranes
# Format: tissue-based, Frontal cortex
# 5-hydroxytryptamine receptor 2A, sequence (P14842 whole entry): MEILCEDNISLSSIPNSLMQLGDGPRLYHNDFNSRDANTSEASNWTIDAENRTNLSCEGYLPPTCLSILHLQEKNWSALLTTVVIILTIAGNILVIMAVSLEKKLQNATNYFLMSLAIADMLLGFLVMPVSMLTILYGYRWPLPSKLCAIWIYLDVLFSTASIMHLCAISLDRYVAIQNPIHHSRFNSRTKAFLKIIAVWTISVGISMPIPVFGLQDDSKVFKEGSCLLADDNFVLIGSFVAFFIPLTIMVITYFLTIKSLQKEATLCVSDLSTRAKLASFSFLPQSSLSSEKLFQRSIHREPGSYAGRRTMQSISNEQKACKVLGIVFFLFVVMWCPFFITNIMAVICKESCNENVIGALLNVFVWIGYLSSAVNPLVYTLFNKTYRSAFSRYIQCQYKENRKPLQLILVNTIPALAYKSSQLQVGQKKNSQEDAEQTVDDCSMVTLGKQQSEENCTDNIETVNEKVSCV
row,SMILES,IC50
1,FC(F)(F)c1cccc(OC(c2ccccc2)C2CCNCC2)c1 (stereo not drawn),> 1 µM
2,Clc1ccc(OC(CCN2CCc3ccccc3C2)c2ccccc2)cc1 (stereo not drawn),> 1 µM
3,N#Cc1ccccc1OC(c1ccccc1)C1CCNCC1 (stereo not drawn),> 1 µM
4,Fc1cccc(C(Oc2ccccc2F)C2CCNCC2)c1 (stereo in doubt; 15t),> 1 µM
5,Fc1ccc(C(Oc2ccccc2)C2CCCNC2)cc1 (stereo not drawn),> 1 µM
6,Fc1ccc(C(Oc2cccc3ccccc23)C2CCCNC2)cc1 (stereo not drawn),> 1 µM
7,Oc1c(F)cccc1OC(c1ccccc1)C1CCNCC1 (stereo not drawn),> 1 µM
8,Clc1ccc(OC(c2ccccc2)C2CCNCC2)cc1Cl (stereo not drawn),> 1 µM
9,Fc1cccc(OC(c2cccc(F)c2)C2CCNCC2)c1 (stereo in doubt; (-)-15u),> 1 µM
10,N#Cc1ccc(OC(c2ccccc2)C2CCNCC2)cc1Cl (stereo not drawn),> 1 µM
11,Clc1ccccc1OC(c1ccccc1)C1CCNCC1 (stereo not drawn),> 1 µM
12,FC(F)(F)c1ccccc1OC(CCN1CCc2ccccc2C1)c1ccccc1 (stereo not drawn),> 1 µM
13,FC(F)(F)c1ccccc1OC(c1ccccc1)C1CCNCC1 (stereo not drawn),> 1 µM
14,Cc1ccc(OC(c2ccc(F)cc2)C2CCCNC2)cc1 (stereo not drawn),> 1 µM
15,c1ccc(OC(c2ccccc2)C2CCNCC2)cc1 (stereo not drawn),> 1 µM
16,COc1ccc(OC(c2ccc(F)cc2)C2CCNCC2)cc1 (stereo not drawn),> 1 µM
17,Fc1ccc(OC(c2ccc(F)cc2)C2CCCNC2)cc1 (stereo not drawn),> 1 µM
18,Ic1cccc(OC(c2ccccc2)C2CCNCC2)c1 (stereo not drawn),> 1 µM

row,SMILES,IC50
1,Brc1cccc(OC(c2ccccc2)C2CCNCC2)c1 (stereo not drawn),> 1 µM
2,Oc1cc(F)cc(OC(c2ccccc2)C2CCNCC2)c1 (stereo not drawn),> 1 µM
3,FC(F)(F)c1ccc(OC(c2ccccc2)C2CCNCC2)cc1 (stereo not drawn),> 1 µM
4,Fc1ccc(C(Oc2ccc(Cl)cc2)C2CCCNC2)cc1 (stereo not drawn),> 1 µM
5,O=[N+]([O-])c1ccc(OC(c2ccccc2)C2CCNCC2)cc1 (stereo in doubt; 15m),> 1 µM
6,Fc1cccc(OC(c2ccccc2)C2CCOCC2)c1 (stereo not drawn),> 1 µM
7,Oc1cc2c(cc1O)CN(CCC(Oc1ccccc1F)c1ccccc1)CC2 (stereo not drawn),> 1 µM
8,Fc1ccc(C(Oc2ccc(C(F)(F)F)cc2)C2CCCNC2)cc1 (stereo not drawn),> 1 µM
9,COc1ccc(OC(c2ccc(F)cc2)C2CCCNC2)cc1 (stereo not drawn),> 1 µM
10,c1ccc(C(Oc2cccc3ccccc23)C2CCNCC2)cc1 (stereo in doubt; 15au),> 1 µM
11,Clc1ccc(C(Oc2ccccc2)C2CCNCC2)cc1 (stereo not drawn),> 1 µM
12,"Fc1ccc(OC(c2ccccc2)C2CCNCC2)cc1 (single isomer, unassigned; (-))",> 1 µM
13,Fc1ccccc1OC(c1ccccc1)C1CCNCC1 (stereo in doubt; 15b),> 1 µM
14,Cc1ccc(Cl)cc1OC(c1ccccc1)C1CCNCC1 (stereo not drawn),> 1 µM
15,Fc1cccc(OC(c2cccc(F)c2)C2CCNCC2)c1 (stereo in doubt; 15u),> 1 µM
16,Oc1cc2c(cc1O)CN(CCC(Oc1ccc(Cl)cc1)c1ccccc1)CC2 (stereo not drawn),> 1 µM
17,COc1cc2c(cc1OC)CN(CCC(Oc1ccc(Cl)cc1)c1ccccc1)CC2 (stereo not drawn),> 1 µM

# Target: T2, Sodium-dependent serotonin transporter (Rattus norvegicus, UniProt P31652)
# Assay: Binding affinity to the serotonin transporter (SERT) measured by displacement of [3H]paroxetine in male wistar rats
# T2 sequence (P31652 whole entry): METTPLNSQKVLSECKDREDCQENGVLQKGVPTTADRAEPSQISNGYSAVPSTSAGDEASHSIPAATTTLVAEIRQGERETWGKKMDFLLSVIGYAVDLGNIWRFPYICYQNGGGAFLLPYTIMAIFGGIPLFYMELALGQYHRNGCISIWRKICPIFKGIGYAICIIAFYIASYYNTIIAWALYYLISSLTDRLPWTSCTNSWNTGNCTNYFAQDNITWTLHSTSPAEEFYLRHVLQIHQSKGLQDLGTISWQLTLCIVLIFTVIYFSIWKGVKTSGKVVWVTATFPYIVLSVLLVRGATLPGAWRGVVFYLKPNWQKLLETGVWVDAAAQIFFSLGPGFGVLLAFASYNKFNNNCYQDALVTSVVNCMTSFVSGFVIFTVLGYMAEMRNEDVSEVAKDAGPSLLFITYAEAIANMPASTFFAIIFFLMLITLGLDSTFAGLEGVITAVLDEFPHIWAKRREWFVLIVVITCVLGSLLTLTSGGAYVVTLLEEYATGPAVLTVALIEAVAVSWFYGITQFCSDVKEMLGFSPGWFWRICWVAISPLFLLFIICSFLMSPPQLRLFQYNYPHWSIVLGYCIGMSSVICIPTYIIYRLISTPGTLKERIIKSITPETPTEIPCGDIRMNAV
row,SMILES,Ki
1,FC(F)(F)c1cccc(OC(c2ccccc2)C2CCNCC2)c1 (stereo not drawn),0.009 µM
2,N#Cc1ccccc1OC(c1ccccc1)C1CCNCC1 (stereo not drawn),0.105 µM
3,Fc1cccc(C(Oc2ccccc2F)C2CCNCC2)c1 (stereo in doubt; 15t),0.0093 µM
4,Fc1ccc(C(Oc2ccccc2)C2CCCNC2)cc1 (stereo not drawn),0.0406 µM
5,Fc1ccc(C(Oc2cccc3ccccc23)C2CCCNC2)cc1 (stereo not drawn),0.0215 µM
6,Oc1c(F)cccc1OC(c1ccccc1)C1CCNCC1 (stereo not drawn),0.0155 µM
7,Clc1ccc(OC(c2ccccc2)C2CCNCC2)cc1Cl (stereo not drawn),0.0099 µM
8,N#Cc1ccc(OC(c2ccccc2)C2CCNCC2)cc1Cl (stereo not drawn),0.0039 µM
9,Clc1ccccc1OC(c1ccccc1)C1CCNCC1 (stereo not drawn),0.0082 µM
10,FC(F)(F)c1ccccc1OC(c1ccccc1)C1CCNCC1 (stereo not drawn),0.124 µM
11,Cc1ccc(OC(c2ccc(F)cc2)C2CCCNC2)cc1 (stereo not drawn),0.0226 µM
12,c1ccc(OC(c2ccccc2)C2CCNCC2)cc1 (stereo not drawn),0.0023 µM
13,COc1ccc(OC(c2ccc(F)cc2)C2CCNCC2)cc1 (stereo not drawn),0.0009 µM
14,Fc1ccc(OC(c2ccc(F)cc2)C2CCCNC2)cc1 (stereo not drawn),0.0234 µM
15,Ic1cccc(OC(c2ccccc2)C2CCNCC2)c1 (stereo not drawn),0.0037 µM
16,Brc1cccc(OC(c2ccccc2)C2CCNCC2)c1 (stereo not drawn),0.01 µM
17,Oc1cc(F)cc(OC(c2ccccc2)C2CCNCC2)c1 (stereo not drawn),0.002 µM
18,FC(F)(F)c1ccc(OC(c2ccccc2)C2CCNCC2)cc1 (stereo not drawn),0.0171 µM
19,Fc1ccc(C(Oc2ccc(Cl)cc2)C2CCCNC2)cc1 (stereo not drawn),0.0139 µM
20,O=[N+]([O-])c1ccc(OC(c2ccccc2)C2CCNCC2)cc1 (stereo in doubt; 15m),0.0024 µM
21,Fc1ccc(C(Oc2ccc(C(F)(F)F)cc2)C2CCCNC2)cc1 (stereo not drawn),0.0262 µM
22,COc1ccc(OC(c2ccc(F)cc2)C2CCCNC2)cc1 (stereo not drawn),0.0208 µM
23,c1ccc(C(Oc2cccc3ccccc23)C2CCNCC2)cc1 (stereo in doubt; 15au),0.0083 µM
24,Clc1ccc(C(Oc2ccccc2)C2CCNCC2)cc1 (stereo not drawn),0.0194 µM
25,Fc1ccccc1OC(c1ccccc1)C1CCNCC1 (stereo in doubt; 15b),0.0063 µM
26,Cc1ccc(Cl)cc1OC(c1ccccc1)C1CCNCC1 (stereo not drawn),0.0156 µM
27,Fc1cccc(OC(c2cccc(F)c2)C2CCNCC2)c1 (stereo in doubt; 15u),0.0161 µM

# Target: T2, Sodium-dependent serotonin transporter
# Assay: Binding affinity against serotonin transporter (SERT) by displacement of [3H]paroxetine in male wistar rats
row,SMILES,IC50
1,Clc1ccc(OC(CCN2CCc3ccccc3C2)c2ccccc2)cc1 (stereo not drawn),> 1 µM
2,FC(F)(F)c1ccccc1OC(CCN1CCc2ccccc2C1)c1ccccc1 (stereo not drawn),> 1 µM
3,Fc1cccc(OC(c2ccccc2)C2CCOCC2)c1 (stereo not drawn),> 1 µM
4,Oc1cc2c(cc1O)CN(CCC(Oc1ccccc1F)c1ccccc1)CC2 (stereo not drawn),> 1 µM
5,Oc1cc2c(cc1O)CN(CCC(Oc1ccc(Cl)cc1)c1ccccc1)CC2 (stereo not drawn),> 1 µM
6,COc1cc2c(cc1OC)CN(CCC(Oc1ccc(Cl)cc1)c1ccccc1)CC2 (stereo not drawn),> 1 µM
